This is an account of results in PubChem BioAssay (NCI).

Structures are written as SMILES.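 The compound was tested at five concentrations on cells cultured in 96-well plates, with a 48-hour exposure period. Abbreviation: GI50, concentration required for 50% inhibition of growth. Definition used: TGI = concentration required for complete inhibition of growth.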 Bounds are passed on as bounds.

Among the test systems are SK-MEL-2 melanoma; HL-60(TB) leukemia; UO-31 renal; PC-3 prostate; HCC-2998 colon; ACHN renal; IGROV1 ovarian; SK-OV-3 ovarian; K-562 leukemia.
Holding throughout (experiment): DTP human tumour cell line panel, 48 h

The TGI is the concentration at which net growth stops. `COc1cc(Br)c(CC2C3=C(CCN2C(=O)C2CCC2)CC(=O)CC3)cc1O` (stereo not drawn): the TGI in the assay with SK-MEL-2 melanoma was > 100 µM; with HL-60(TB) leukemia it was 36.9 µM; in the assay with UO-31 renal it was > 100 µM; in the assay with PC-3 prostate, > 100 µM; with HCC-2998 colon it was 92.9 µM; with ACHN renal, 86.9 µM. Further, the results for the TGI with IGROV1 ovarian, in the assay with SK-OV-3 ovarian and with K-562 leukemia were > 100 µM, > 100 µM and 81.3 µM, respectively.
As to `O=C1C(=Cc2ccc(Cl)c(Cl)c2)C([O-])=C([P+](c2ccccc2)(c2ccccc2)c2ccccc2)C([O-])=C1[P+](c1ccccc1)(c1ccccc1)c1ccccc1`, the TGI in the assay with SK-MEL-2 melanoma came out at 6.91 µM; in the assay on HL-60(TB) leukemia, 3.18 µM; in the assay on UO-31 renal, 8.89 µM; in the assay with PC-3 prostate it was 3.79 µM; in the assay with HCC-2998 colon, 5.78 µM; in the assay on ACHN renal it was 9.26 µM. In addition, the TGI in the assay on IGROV1 ovarian amounted to 6.34 µM; in the assay on SK-OV-3 ovarian, 4.48 µM; in the assay on K-562 leukemia, 8.33 µM.
As for `CN(Cc1cc(Cl)c(Cl)cc1NC(=O)CN)[C@H]1CCCC[C@@H]1N1CCCC1`, the TGI was 31.9 µM with SK-MEL-2 melanoma; > 100 µM with HL-60(TB) leukemia; > 100 µM in the assay with UO-31 renal; > 100 µM in the assay on PC-3 prostate; 31.2 µM in the assay with HCC-2998 colon; > 100 µM in the assay with ACHN renal. Besides, the TGI in the assay on IGROV1 ovarian is > 100 µM; in the assay with SK-OV-3 ovarian, > 100 µM; in the assay with K-562 leukemia, 35.9 µM.
Consider `N#CC(C#N)=C1C(=O)NC(N)=C1C#N`, for which the TGI with SK-MEL-2 melanoma, in the assay on HL-60(TB) leukemia, in the assay on UO-31 renal, with PC-3 prostate, with HCC-2998 colon and in the assay with ACHN renal was > 100 µM each time. For the same compound, the TGI in the assay on IGROV1 ovarian, with SK-OV-3 ovarian and with K-562 leukemia was > 100 µM in each case.
Consider `CCCCCCCCCCCCCC(=O)N(CCCCCCCCC)CC(O)C(O)C(OC1OC(CO)C(O)C(O)C1O)C(O)CO` (stereo not drawn), for which the TGI in the assay with SK-MEL-2 melanoma turned out to be 59 µM; with HL-60(TB) leukemia it was 48.7 µM; in the assay with UO-31 renal, 34.5 µM; with PC-3 prostate it was 54.6 µM; with HCC-2998 colon it was 33.7 µM; in the assay with ACHN renal it was 30.5 µM. Moreover, the TGI in the assay with IGROV1 ovarian came out at 38.1 µM; in the assay on SK-OV-3 ovarian it was 30.8 µM; with K-562 leukemia, 39.4 µM.
With `CCOC(=O)/C=C(\C(=O)OCC)n1ccc(=O)[nH]c1=O`, the TGI turned out to be 50 µM in the assay on SK-MEL-2 melanoma; 6.2 µM in the assay with HL-60(TB) leukemia; 31.1 µM in the assay with UO-31 renal; 30.7 µM in the assay on PC-3 prostate; 38.4 µM in the assay on HCC-2998 colon; 23.6 µM in the assay on ACHN renal. The TGI is 30.1 µM in the assay with IGROV1 ovarian, > 76.1 µM in the assay on SK-OV-3 ovarian and 19.1 µM with K-562 leukemia.
With `O=[N+]([O-])C(Cl)=C/C(=C(\Cl)SCc1ccccc1)[N+](=O)[O-]`, the TGI with SK-MEL-2 melanoma amounted to 76.5 µM; with HL-60(TB) leukemia it was 23.8 µM; in the assay on UO-31 renal, 40.2 µM; in the assay on PC-3 prostate it was 48.1 µM; in the assay on HCC-2998 colon it was 77.6 µM; in the assay with ACHN renal, 32.2 µM. Besides, the TGI with IGROV1 ovarian is 91 µM; in the assay on SK-OV-3 ovarian it was > 100 µM; in the assay with K-562 leukemia, 30.5 µM.
On to `OC1C[C@H](c2ccccc2)C2(C(O)c3ccccc3C2O)[C@@H](c2ccccc2)C1` (stereo partly drawn), for which the TGI in the assay on SK-MEL-2 melanoma, with HL-60(TB) leukemia, with UO-31 renal, in the assay on PC-3 prostate, with HCC-2998 colon and in the assay with ACHN renal was > 100 µM in each case. Also, the TGI in the assay on IGROV1 ovarian, in the assay on SK-OV-3 ovarian and with K-562 leukemia was > 100 µM throughout.
In the case of `Fc1cc(-c2cc(-c3ccc4c(c3)OCO4)n[nH]2)c(Cl)cc1Cl`, the TGI is 36.5 µM in the assay with SK-MEL-2 melanoma; > 100 µM in the assay with HL-60(TB) leukemia; 6.46 µM with UO-31 renal; 11.1 µM in the assay on PC-3 prostate; 15.6 µM with HCC-2998 colon; 3.86 µM in the assay on ACHN renal. Besides, the total growth inhibition concentration (TGI) is 7.5 µM in the assay with IGROV1 ovarian, 5.44 µM with SK-OV-3 ovarian and > 40.1 µM with K-562 leukemia.
Consider `CC(C)(C)OC(=O)NCC(=O)N1CCN(C(=O)CNC(=O)OC(C)(C)C)CC1`, for which the TGI in the assay on SK-MEL-2 melanoma, in the assay on HL-60(TB) leukemia, with UO-31 renal, in the assay on PC-3 prostate, in the assay with HCC-2998 colon and with ACHN renal was > 100 µM in each case. The TGI in the assay on IGROV1 ovarian, in the assay on SK-OV-3 ovarian and in the assay with K-562 leukemia was > 100 µM in each case.
For the compound `[N-]=[N+]=Nc1c([N+](=O)[O-])c(=O)n2c3c(cccc13)CCC2`, the TGI in the assay on SK-MEL-2 melanoma was 31.2 µM; in the assay with HL-60(TB) leukemia, 4.56 µM; with UO-31 renal it was 28.4 µM; with PC-3 prostate it was 30.7 µM; in the assay on HCC-2998 colon it was 34.4 µM; in the assay with ACHN renal, 31.8 µM. For the same compound, the results for the TGI with IGROV1 ovarian, with SK-OV-3 ovarian and with K-562 leukemia were 41 µM, > 100 µM and 3.84 µM, respectively.
In the case of `CC(C)(C)[Si](C)(C)OCC1OC(n2cnc3c(=O)[nH]c(N)nc32)C(O[Si](C)(C)C(C)(C)C)C1O[Si](C)(C)C(C)(C)C` (stereo not drawn), the TGI came to 1.01 µM with SK-MEL-2 melanoma; 2.34 µM in the assay on HL-60(TB) leukemia; 15.3 µM in the assay on UO-31 renal; 9.79 µM in the assay with PC-3 prostate; 4.02 µM in the assay on HCC-2998 colon; 12.9 µM in the assay on ACHN renal. Further, the TGI with IGROV1 ovarian came out at 3.91 µM; in the assay on SK-OV-3 ovarian it was 4.45 µM; in the assay on K-562 leukemia it was 2.76 µM.
Consider `c1ccc(CN2CCN3CCN(CC2)CCN(Cc2ccccc2)CC3)cc1`, for which the TGI in the assay on SK-MEL-2 melanoma was 8.06 µM; with HL-60(TB) leukemia, 8.32 µM; in the assay on UO-31 renal, > 81.5 µM; with PC-3 prostate, 18.5 µM; in the assay with HCC-2998 colon, 23.3 µM; in the assay with ACHN renal, 65.6 µM. Further, the TGI in the assay on IGROV1 ovarian came out at 22.1 µM; in the assay with SK-OV-3 ovarian, 40 µM; in the assay with K-562 leukemia, 25.6 µM.
Usually GI50 stands for the concentration at which growth is held to half of that of the control. With `O=c1ccc2nc(-c3ccccn3)nn(-c3ccccc3)c-2c1`, the GI50 was 2960 nM in the assay on SK-MEL-2 melanoma; 640 nM in the assay on HL-60(TB) leukemia; 1460 nM in the assay with UO-31 renal; 1930 nM in the assay on PC-3 prostate; 4.18 µM with HCC-2998 colon; 1590 nM in the assay on ACHN renal. Further, the figures for the GI50 in the assay on IGROV1 ovarian and with SK-OV-3 ovarian were 2630 nM and 11.1 µM, respectively. For the same compound, the TGI is 8.68 µM with SK-MEL-2 melanoma; 3.11 µM in the assay on HL-60(TB) leukemia; 2.82 µM in the assay on UO-31 renal; 4.18 µM in the assay with PC-3 prostate; 14.6 µM in the assay with HCC-2998 colon; 2.99 µM in the assay on ACHN renal. The TGI in the assay on IGROV1 ovarian is 6.65 µM; with SK-OV-3 ovarian, 24.1 µM.
